{"source": "patent US20260000781A1", "about": "“FC CONJUGATES INCLUDING AN INHIBITOR OF CD73 AND USES THEREOF” (Cidara Therapeutics, Inc., priority 2022, published 2026)", "molecular_target": "T1, CD73 on 4T1 mouse cells (Mus musculus, UniProt Q61503)", "T1 construct": "host or cells: 4T1", "T1 sequence (Q61503 29-551)": "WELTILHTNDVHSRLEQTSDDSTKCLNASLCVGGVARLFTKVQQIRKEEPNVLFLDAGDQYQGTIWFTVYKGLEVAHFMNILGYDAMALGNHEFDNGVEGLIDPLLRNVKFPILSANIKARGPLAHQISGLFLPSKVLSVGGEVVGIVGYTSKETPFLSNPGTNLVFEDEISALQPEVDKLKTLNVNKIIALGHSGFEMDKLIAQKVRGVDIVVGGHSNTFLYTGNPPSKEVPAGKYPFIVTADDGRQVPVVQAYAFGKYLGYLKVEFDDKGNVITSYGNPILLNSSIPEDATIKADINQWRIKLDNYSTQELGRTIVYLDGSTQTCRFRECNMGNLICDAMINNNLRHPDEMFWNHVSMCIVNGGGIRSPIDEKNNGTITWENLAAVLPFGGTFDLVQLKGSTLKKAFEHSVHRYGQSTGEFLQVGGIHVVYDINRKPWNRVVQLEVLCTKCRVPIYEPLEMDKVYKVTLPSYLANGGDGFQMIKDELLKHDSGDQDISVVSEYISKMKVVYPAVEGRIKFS", "experiment": "CD73 enzyme inhibition assay with mouse 4T1 cells (PiColorLock)", "format": "cell-based", "settings": "4T1 cancer cells, AMP 100 μM", "method": "The cell-based CD73 enzyme inhibition assay was performed in a 96-well plate format using the PiColorLock phosphate assay kit in accordance with the manufacturer's instructions (Abcam cat no. 270004). 4T1 mouse cells are a model for stage IV human breast cancer (ATCC CRL-2539) and human peripheral blood mononuclear cells (PBMCs; StemCell Technologies cat no. 70025) from three different donors were assayed. 4T1 cells were washed three times with a phosphate-free CD73 buffer (Lawson et al., 2020), detached from tissue-culture flasks using a cell scraper, and seeded at 5×10^3 cells/well into 96-well tissue culture-treated plates. Human PBMCs were washed three times with phosphate-free CD73 buffer at 125×g for 10 min at room temperature and seeded at 1×10^5 cells/well into 96-well tissue culture-treated plates. Test articles were tested from 0.001 nM to 1,000 nM (4T1 cells) or 0.0001 nM to 100 nM (PBMCs) and incubated with cells for 30 min at 37° C., 5% CO2. AMP (100 μM final concentration) was added to cells and test articles, and the reaction incubated for 3 h and 24 h at 37° C., 5% CO2. The conversion of AMP to adenosine and phosphate in cell-free supernatant was quantified using the PiColorLock kit. Colorimetric detection reagent was added and the phosphate production was measured by reading the absorbance at 635 nm with the EnSpire multimode plate reader (PerkinElmer). Cells without test article (positive control) were included on each plate. Control wells without test article and cells (background) were subtracted from all wells. Percent CD73 inhibition versus inhibitor concentration was plotted using GraphPad Prism Version 8 and IC50's calculated using nonlinear regression analysis (Sigmoidal, 4 PL).", "note": "Like-named read-outs stand apart in the source and are kept apart here.", "data": [{"smiles": "C[C@H](Nc1cc(Cl)nc2c1cnn2[C@@H]1O[C@H](COP(=O)(O)CP(=O)(O)O)[C@@H](O)[C@H]1O)c1ccccc1F", "note": "[AB680]", "values": [{"measurement": "IC50", "setting": "24 h, read-out: 24 h IC50", "value": 85.7, "unit": "nM"}, {"measurement": "IC50", "setting": "3 h IC50 [nM], 3 h", "value": 6.79, "unit": "nM"}]}, {"smiles": "COC[C@](CO)(OC[C@H]1O[C@@H](n2ncc3c(NC4CCCC4)nc(Cl)nc32)[C@H](O)[C@@H]1O)P(=O)(O)O", "note": "[OP-5244]", "values": [{"measurement": "IC50", "setting": "24 h, read-out: 24 h IC50", "value": 24, "unit": "nM"}, {"measurement": "IC50", "setting": "read-out: 3 h IC50, 3 h", "value": 1.67, "unit": "nM"}]}, {"smiles": "O=P(O)(O)COC[C@H]1O[C@@H](n2ncc3c(N4CC5(CCc6ccccc65)C4)nc(Cl)nc32)[C@H](O)[C@@H]1O", "note": "[SHR170008]", "values": [{"measurement": "IC50", "setting": "24 h, read-out: 24 h IC50", "value": 114, "unit": "nM"}, {"measurement": "IC50", "setting": "read-out: 3 h IC50, 3 h", "value": 8.2, "unit": "nM"}]}]}
